Entries after “also recorded” stand apart in the source; their conditions may differ.
Columns and labels:
[1] = tested on: male FAW; assay: Field assays, Hartstack traps in cotton field, 2-component pheromone mix with nonanal; type: in vivo, Spodoptera frugiperda
Procedure: Field Assays: Formulations were tested under field conditions. Z9-14:OAc and Z7-12:OAc were diluted in hexane and 100 μL of the solution containing 100 μg and 0.58 μg of the respective compounds was loaded to a rubber septum (11 mm; Wheaton, DWK Life Sciences, Millville, N.J., United States of America). The septum was left inside a fume hood for 15 hr for the solvent to evaporate and then tested in field assays. Nonanal was diluted in paraffin oil and 100 μL of the solution was transferred to a vial dispenser. The solution contained either 0.1 μg or 1 μg, which corresponded to 0.1% and 1% of the amount of Z9-14:OAc. This dispenser constituted a 2 ml borosilicate vial covered with aluminum foil and contained 50 mg of deactivated glass wool. The vial was loaded with a nonanal solution and capped. […] A straightened metal paper clip pierced through the small cup of a pheromone-loaded rubber septum and was tied around the neck of a nonanal-loaded vial. This set was held by a steel alligator clip installed inside a Hartstack trap. We tested the attraction of male FAW to the following treatments: • Control: clean hexane loaded into a rubber septum and clean paraffin oil in a, vial dispenser • Pheromone mix: 100 μj of Z9-14:OAc and 0.58 μg of Z7-12:OAc in rubber septum and clean paraffin oil in vial dispenser • Pheromone 4-0.1% Nonanal: Pheromone mix in rubber septum and 0.1 μg of nonanal in vial dispenser • Pheromone+1% Nonanal: Pheromone mix in rubber septum and 1 μg of nonanal in vial dispenser
The Hartstack trap consisted of a conical body made of metal mesh with a removal top (H: 15 cm, ø=14 cm) in which males were trapped. Traps stood over the canopy of crops on rebars (L: 1.5 m) that were fixed to the ground. Traps were set for one week in a cotton field along the crop row, 15 m apart. Each experimental block consisted of 4 traps 15 m from each other. The next block was set 15 m from the first block and parallel to it. Each treatment was replicated once within a block and assigned randomly to trap positions. The number of trapped male FAW moths and other species were counted daily and traps were rotated.
A second study repeated the same procedure described above but increased the amount of Z9-14:OAc and Z7-12:OAc in the mix to 1000 μg and 5.8 μg, respectively, and nonanal to 10, 20 and 40 μg. The attraction of male FAW was tested to the following treatments: • Control: clean hexane loaded into a rubber septum and clean paraffin oil loaded into a vial dispenser • Pheromone mix: 1000 μg of Z9-14:OAc and 5.8 μg of Z7-12:OAc in rubber septum and clean paraffin oil in vial dispenser (no nonanal). • Pheromone 4-1% Nonanal: Pheromone mix in rubber septum and 10 μg of nonanal in vial dispenser. • Pheromone+2% Nonanal: Pheromone mix in rubber septum and 20 μg of nonanal in vial dispenser. • Pheromone+4% Nonanal: Pheromone mix in rubber septum and 40 μg of nonanal in vial dispenser.
(§1) Statistical analysis: All statistical analyses were performed in R (version 3.5.1). Behavioral responses of male FAW to formulations in the olfactometer were analyzed by binomial generalized linear model. Numbers of male FAW catches in the same day were combined per treatment and analyzed by Poisson generalized linear model (GLM). Treatments that had no catches were not included in the analyses.

[2] = tested on: FAW males; assay: No-choice linear olfactometer behavioral assay; type: in vivo, Spodoptera frugiperda
Procedure: Behavioral Assay: A no-choice linear olfactometer assay was used to test the behavior of FAW males to different formulations. The olfactometer consists of a linear Plexiglas® tube (n=6 cm i.d., length=145 cm) that was connected to an air pump that generated an internal airflow speed of 0.1 m/s. A short Plexiglas® chamber filled with activated charcoal was connected to the opposite end of the olfactometer to filter the inward air. […] An aliquot of […] was added to a piece of filter paper and solvent was left to evaporate for 30 min at room temperature. Filter papers were introduced to the olfactometer through an opening (0=2 cm) on the top of the olfactometer, 4 cm away from the charcoal filter. Filter papers were tested only once. Moths were tested for 5 minutes and the sequence of their behavioral response was recorded as: activation (wing fanning and start moving upwind), reaching the half-way point of the olfactometer (HW), close approach to the odor source (CA), and source contact (contact). The experiment was conducted 4-7 hours into the scotophase.
The tested formulations were: […]
as §1

[3] = tested on: male FAW; assay: Field test with commercial lures plus nonanal, Hartstack traps in sorghum crop; type: in vivo, Spodoptera frugiperda
Procedure: Field test with commercial formulation: The effect of adding nonanal to commercial formulations was tested in a sorghum crop for five days. Lures were purchased from two commercial suppliers, referred to herein as “Commercial Supplier A” (L105A from Seemly Biologicals Inc., Billings, Mont., United States of America) and “Commercial Supplier B” (FAW 3143 from Trécé, Adair, Okla., United States of America). These lures were formulated by the respective companies in rubber septa. Nonanal was formulated in the same way as described above and a straightened metal paper clip held together both the nonanal-loaded vial and the commercial lure. This set was installed inside a Hartstack trap and traps were positioned in the same manner described above. The attraction of male FAW to the following treatments was tested: • Commercial Supplier B lure combined with clean paraffin oil in vial dispenser (no nonanal). • Commercial. Supplier B lure combined with 20 μg of nonanal in vial dispenser. • Commercial Supplier A lure combined with clean paraffin oil in vial dispenser (no nonanal). • Commercial Supplier A lure combined with 20 μg of nonanal in vial dispenser.
A second study was conducted in the same crop over a second five-day period, aimed to investigate different doses of nominal in combination with Commercial Supplier A lures. Using the same procedure described above, the attraction of male FAW was tested to the following treatments: • Commercial. Supplier A lure combined with clean paraffin oil in vial dispenser (no nonanal). • Commercial Supplier A lure combined with 10 μg of nonanal in vial dispenser. • Commercial Supplier A lure combined with 20 μg of nonanal in vial dispenser. • Commercial Supplier A lure combined with 40 μg of nonanal in vial dispenser. • Commercial Supplier A lure combined with 80 μg of nonanal in vial dispenser.
as §1

[4] = tested on: antenna of FAW males; assay: GC-EAD electrophysiology of female pheromone gland extract on male antenna; design: species or system Spodoptera frugiperda; details: 1 μl female pheromone gland extract
Procedure: Electrophysiology: The sex pheromone gland of ten 3-4-day old FAW females was dissected and placed in a glass insert containing 30 μl hexane (SupraSolv®; MilliporeSigma, Burlington, Mass., United States of America). After 10 min, the hexane extract was transferred to a second insert and concentrated down to 10 μl under a gentle flow of nitrogen. A gas chromatograph coupled to an electroantennogram detector (GC-EAD) was used to identify biologically active compounds that are perceived by the antenna of FAW males, since the antenna is the main olfactory organ of insects. The GC separates chemical mixes into individual compounds and directs them to the insect antenna, which is connected to an amplifier, the EAD. In parallel to the GC, the electrophysiological response of the antenna is recorded to identify the active compounds. An aliquot of 1 μl of the pheromone gland extract was injected in the GC-EAD where a male FAW antenna was mounted. Clean hexane that was handled in the same manner without glands was used as control.

[5] = nonanal at all doses (0.05, 0.1, 1% relative to 100 ng Z9-14:OAc) added to 2-component formulation, N=15

**Q.** `CCCCCCCCC=O` [nonanal] was tested. Which “trap catch” value ([1]; 0.1% nonanal (0.1 μg) added to 100 μg Z9-14:OAc + 0.58 μg Z7-12:OAc, cotton field) did it give?
**A.** intermediate trap catch between the pheromone mix alone and with the addition of 1% nonanal

**Q.** And the “improvement of male catches compared to the pheromone mix alone” value ([1]; 1% nonanal (1 μg) added to 100 μg Z9-14:OAc + 0.58 μg Z7-12:OAc, cotton field)?
**A.** 155%

**Q.** And the “number of males caught per day” value ([1]; 1% nonanal added to 100 μg Z9-14:OAc + 0.58 μg Z7-12:OAc, cotton field, three traps, six days)?
**A.** highest number of males caught

**Q.** And the “nonanal percentage (compared to Z9-14:OAc) that rendered the highest number of trap catches in the field” value ([1]; field assays)?
**A.** 1 % (weight/weight)

**Q.** What about the “numbers of male FAW in traps” value ([1]; nonanal 0.1 and 1 μg added to 100 μg Z9-14:OAc + 0.58 μg Z7-12:OAc, cotton field) of the same compound?
**A.** significantly increased the numbers of male FAW in traps

**Q.** And the “male catches per day, more than the pheromone alone” value ([1]; second assay: 1% nonanal added to 1 mg Z9-14:OAc + 5 μg Z7-12:OAc, cotton field)?
**A.** 100%

**Q.** What about the “number of males caught per day” value ([1]; second assay: 1% nonanal added to pheromone mix (1 mg Z9-14:OAc), cotton field, nine days) of the same compound?
**A.** highest number of male catches per day; also recorded: highest number of males caught

**Q.** And the “number of males caught” value ([1]; second assay: 2% nonanal added to pheromone mix (1 mg Z9-14:OAc), cotton field)?
**A.** decreased the number of males caught and was not significantly different from the pheromone formulation alone

**Q.** What about the “number of males caught” value ([1]; second assay: 4% nonanal added to pheromone mix (1 mg Z9-14:OAc), cotton field) of the same compound?
**A.** decreased the number of males caught and was not significantly different from the pheromone formulation alone

**Q.** And the “trap catch” value ([1]; second assay: nonanal alone (1% and 4%), no pheromone mix, cotton field)?
**A.** did not yield any catch; also recorded: did not catch any males

**Q.** What about the “males that reached the pheromone source” value ([2]; 1% nonanal (1 ng) added to 2-component formulation (Formulation #4), N=15) of the same compound?
**A.** 100%

**Q.** And the “effect on attraction / pheromone-triggered response of males” value ([2]; nonanal 0.05, 0.1, 1% added to 2-component formulation, olfactometer)?
**A.** enhanced the attraction of male FAW

**Q.** What about the males activated [2, 5] of the same compound?
**A.** 100%

**Q.** And the “males that reached the pheromone source” value [2, 5]?
**A.** more than 66%

**Q.** And the “increase of trap catches compared to commercial lure alone” value ([3]; 20 μg (1%) nonanal added to Commercial Supplier A lure, sorghum field)?
**A.** 46.5%

**Q.** What about the “increase of trap catches compared to commercial lure alone” value ([3]; 20 μg (1%) nonanal added to Commercial Supplier B lure, sorghum field) of the same compound?
**A.** 53%

**Q.** And the “number of males caught per day” value ([3]; 20 μg nonanal added to Commercial Supplier A and B lures, sorghum field, four traps per treatment)?
**A.** significantly increased the number of males caught per day compared to the commercial lures alone

**Q.** What about the “number of males caught per day” value ([3]; second study (FIG. 6): nonanal added to Commercial Supplier A (Scentry) lure, sorghum field, five days) of the same compound?
**A.** significantly increased the number of males caught compared to the commercial lures alone

**Q.** And the “number of males caught compared to the commercial lure alone” value ([3]; second study: 80 μg (4%) nonanal added to Commercial Supplier A lure, sorghum field)?
**A.** 52.4%

**Q.** What about the “trap catches” value ([3]; second study: 1% nonanal added to Commercial Supplier A lure) of the same compound?
**A.** only slightly increased the trap catches

**Q.** And the “trap catches” value ([3]; second study: 2% nonanal added to Commercial Supplier A lure)?
**A.** only slightly increased the trap catches

**Q.** What about the “trap catch” value ([3]; second study: 8% nonanal added to Commercial Supplier A lure) of the same compound?
**A.** decreased trap catch

**Q.** What about the “antennal (EAD) response” value [4] of the same compound?
**A.** active; also recorded: robust antennal responses

Reference: patent US20230122932A1, “NEW SEX PHEROMONE COMPONENTS FOR THE FALL ARMYWORM, SPODOPTERA FRUGIPERDA” (North Carolina State University, priority 2020, published 2023)
